Source: ChEMBL document CHEMBL3120061, “Novel spiroketal pyrrolidine GSK2336805 potently inhibits key hepatitis C virus genotype 1b mutants: from lead to clinical compound” (J Med Chem, 2014)

Assays:
[1] = system: Hepatitis C virus; assay: Antiviral activity against Hepatitis C virus genotype 1a in Huh-luc/neo-ET replicon cells after 48 hrs by replicon-based luciferase assay; assay type: functional, organism-based, Hepacivirus hominis; conditions: subtype 1a
[2] = system: Hepatitis C virus; assay: Antiviral activity against Hepatitis C virus genotype 1b in Huh-luc/neo-ET replicon cells after 48 hrs by replicon-based luciferase assay; assay type: functional, organism-based, Hepacivirus hominis
[3] = system: Hepatitis C virus; assay: Antiviral activity against Hepatitis C virus genotype 1b harboring NS5A L28V mutant gene in Huh-luc/neo-ET replicon cells after 48 hrs by transient replicon mutant-based luciferase assay; assay type: functional, organism-based, Hepacivirus hominis
[4] = system: Hepatitis C virus; assay: Antiviral activity against Hepatitis C virus genotype 1b harboring NS5A Y93H mutant gene in Huh-luc/neo-ET replicon cells after 48 hrs by transient replicon mutant-based luciferase assay; assay type: functional, organism-based, Hepacivirus hominis
[5] = system: Hepatitis C virus; assay: Ratio of EC50 for Hepatitis C virus genotype 1b harboring NS5A L31V mutant gene to EC50 for Hepatitis C virus genotype 1b harboring wild type NS5A in Huh-luc/neo-ET replicon cells by replicon-based luciferase assay; assay type: functional, Hepacivirus hominis
[6] = system: Hepatitis C virus; assay: Antiviral activity against Hepatitis C virus genotype 1b harboring NS5A L31V mutant gene in Huh-luc/neo-ET replicon cells after 48 hrs by transient replicon mutant-based luciferase assay; assay type: functional, organism-based, Hepacivirus hominis
[7] = system: Hepatitis C virus; assay: Ratio of EC50 for Hepatitis C virus genotype 1b harboring NS5A Y93H mutant gene to EC50 for Hepatitis C virus genotype 1b harboring wild type NS5A in Huh-luc/neo-ET replicon cells by replicon-based luciferase assay; assay type: functional, Hepacivirus hominis

Compound | EC50 [1] | EC50 [2] | other results
COC(=O)N[C@H](C(=O)N1CCC[C@H]1c1ncc(-c2ccc(-c3ccc(-c4cnc([C@@H]5CC6(CN5C(=O)[C@@H](NC(=O)OC)C(C)C)O[C@@H](C)C[C@H](C)O6)[nH]4)cc3)cc2)[nH]1)C(C)C (stereo partly specified) | 2 nM | 0.0126 nM | –
COC(=O)N[C@H](C(=O)N1CCC[C@H]1c1ncc(-c2ccc(-c3ccc(-c4cnc([C@@H]5COC6(CCOCC6)N5C(=O)OCc5ccccc5)[nH]4)cc3)cc2)[nH]1)C(C)C | 1.58 nM | 0.002 nM | –
COC(=O)N[C@H](C(=O)N1CC2(CC1c1ncc(-c3ccc(-c4ccc(-c5cnc([C@@H]6CCCN6C(=O)[C@@H](NC(=O)OC)C(C)C)[nH]5)cc4)cc3)[nH]1)CC(F)(F)C2)C(C)C (mixture of isomers) | 0.1 nM | 0.00398 nM | –
COC(=O)N[C@H](C(=O)N1CC2(CC1c1ncc(-c3ccc(-c4ccc(-c5cnc([C@@H]6CCCN6C(=O)[C@@H](NC(=O)OC)C(C)C)[nH]5)cc4)cc3)[nH]1)CN(C(=O)OC)C2)C(C)C (mixture of isomers) | 2 nM | 0.0501 nM | –
COC(=O)N[C@H](C(=O)N1CC2(CCN(C(C)=O)CC2)CC1c1ncc(-c2ccc(-c3ccc(-c4cnc([C@@H]5CCCN5C(=O)[C@@H](NC(=O)OC)C(C)C)[nH]4)cc3)cc2)[nH]1)C(C)C (mixture of isomers) | 10 nM | 0.2 nM | –
COC(=O)N[C@H](C(=O)N1CC2(CCNCC2)CC1c1ncc(-c2ccc(-c3ccc(-c4cnc([C@@H]5CCCN5C(=O)[C@@H](NC(=O)OC)C(C)C)[nH]4)cc3)cc2)[nH]1)C(C)C (mixture of isomers) | > 31.6 nM | 1.58 nM | –
COC(=O)N[C@H](C(=O)N1CCC[C@H]1c1ncc(-c2ccc(-c3ccc(-c4cnc(C5CCC6(CCOCC6)N5C(C)=O)[nH]4)cc3)cc2)[nH]1)C(C)C (stereo partly specified) | 0.316 nM | 0.0126 nM | –
COC(=O)N[C@H](C(=O)N1CCC[C@H]1c1ncc(-c2ccc(-c3ccc(-c4cnc(C5CCC6(CCS(=O)(=O)CC6)N5C(=O)[C@@H](NC(=O)OC)C(C)C)[nH]4)cc3)cc2)[nH]1)C(C)C (stereo partly specified) | 12.6 nM | 0.316 nM | –
COC(=O)N[C@H](C(=O)N1CC2(CNC2)CC1c1ncc(-c2ccc(-c3ccc(-c4cnc([C@@H]5CCCN5C(=O)[C@@H](NC(=O)OC)C(C)C)[nH]4)cc3)cc2)[nH]1)C(C)C (mixture of isomers) | 3.16 nM | 0.126 nM | –
COC(=O)N[C@H](C(=O)N1CC2(CC1c1ncc(-c3ccc(-c4ccc(-c5cnc([C@@H]6CCCN6C(=O)[C@@H](NC(=O)OC)C(C)C)[nH]5)cc4)cc3)[nH]1)CN(C(=O)OC(C)(C)C)C2)C(C)C (mixture of isomers) | 1 nM | 0.01 nM | –
COC(=O)N[C@@H](C)C(=O)N1C(c2ncc(-c3ccc(-c4ccc(-c5cnc([C@@H]6CCCN6C(=O)[C@@H](NC(=O)OC)C(C)C)[nH]5)cc4)cc3)[nH]2)CCC12CCC(F)(F)CC2 (stereo partly specified) | 0.631 nM | 0.01 nM | –
COC(=O)NCC(=O)N1CC2(C[C@H]1c1ncc(-c3ccc(-c4ccc(-c5cnc([C@@H]6CCCN6C(=O)[C@@H](NC(=O)OC)C(C)C)[nH]5)cc4)cc3)[nH]1)SCCS2 | 0.631 nM | 0.00501 nM | –
CC(=O)N1CCC[C@H]1c1ncc(-c2ccc(-c3ccc(-c4cnc([C@@H]5CCCN5C(C)=O)[nH]4)cc3)cc2)[nH]1 | 794 nM | 126 nM | –
COC(=O)N[C@H](C(=O)N1CCC[C@H]1c1ncc(-c2ccc(-c3ccc(-c4cnc([C@@H]5CC6(CN5C(=O)[C@@H](NC(=O)OC)C(C)C)OCC(C)(C)CO6)[nH]4)cc3)cc2)[nH]1)C(C)C | 0.794 nM | 0.00251 nM | –
COC(=O)N[C@H](C(=O)N1CCC[C@H]1c1ncc(-c2ccc(-c3ccc(-c4cnc([C@@H]5CC6(CN5C(=O)[C@@H](NC(=O)OC)C(C)C)OCCCO6)[nH]4)cc3)cc2)[nH]1)C(C)C | 0.0251 nM | 0.00794 nM | –
COC(=O)N[C@H](C(=O)N1CC2(CC1c1ncc(-c3ccc(-c4ccc(-c5cnc([C@@H]6CCCN6C(=O)[C@@H](NC(=O)OC)C(C)C)[nH]5)cc4)cc3)[nH]1)CN(S(C)(=O)=O)C2)C(C)C (mixture of isomers) | 1.26 nM | 0.0501 nM | –
COC(=O)N[C@H](C(=O)N1CC2(CCS(=O)(=O)CC2)CC1c1ncc(-c2ccc(-c3ccc(-c4cnc([C@@H]5CCCN5C(=O)[C@@H](NC(=O)OC)C(C)C)[nH]4)cc3)cc2)[nH]1)C(C)C (mixture of isomers) | 0.398 nM | 0.0398 nM | –
COC(=O)N[C@H](C(=O)N1CCC[C@H]1c1ncc(-c2ccccc2)[nH]1)C(C)C | 501 nM | 200 nM | –
COC(=O)N[C@H](C(=O)N1CC2(CCN(C(=O)OC(C)(C)C)CC2)CC1c1ncc(-c2ccc(-c3ccc(-c4cnc([C@@H]5CCCN5C(=O)[C@@H](NC(=O)OC)C(C)C)[nH]4)cc3)cc2)[nH]1)C(C)C (mixture of isomers) | 10 nM | 0.0398 nM | –

Compound | EC50 [1] | EC50 [2] | other results
CNC(=O)N1CC2(CC(c3ncc(-c4ccc(-c5ccc(-c6cnc([C@@H]7CCCN7C(=O)[C@@H](NC(=O)OC)C(C)C)[nH]6)cc5)cc4)[nH]3)N(C(=O)[C@@H](NC(=O)OC)C(C)C)C2)C1 (mixture of isomers) | 6.31 nM | 0.251 nM | –
COC(=O)N[C@H](C(=O)N1CC2(CC1c1ncc(-c3ccc(-c4ccc(-c5cnc([C@@H]6CCCN6C(=O)[C@@H](NC(=O)OC)C(C)C)[nH]5)cc4)cc3)[nH]1)CN(C(C)=O)C2)C(C)C (mixture of isomers) | 1.26 nM | 0.158 nM | –
O=C(Nc1cccnc1)c1ccc(-c2csc(NC(=O)[C@@H]3COC4(CCOCC4)N3C(=O)OCc3ccccc3)n2)cc1 | > 20000 nM | 0.251 nM | –
COC(=O)N[C@H](C(=O)N1CC2(CCN(C(=O)OC)CC2)CC1c1ncc(-c2ccc(-c3ccc(-c4cnc([C@@H]5CCCN5C(=O)[C@@H](NC(=O)OC)C(C)C)[nH]4)cc3)cc2)[nH]1)C(C)C (mixture of isomers) | 0.794 nM | 0.0158 nM | –
COC(=O)N[C@H](C(=O)N1CCC[C@H]1c1ncc(-c2ccc(-c3ccc(-c4cnc(C5CCC6(CCC(F)(F)CC6)N5C(C)=O)[nH]4)cc3)cc2)[nH]1)C(C)C (stereo partly specified) | 25.1 nM | 0.1 nM | –
COC(=O)N[C@H](C(=O)N1CCC[C@H]1c1ncc(-c2ccc(-c3ccc(-c4cnc(C5CCC6(CCC(F)(F)CC6)N5C(=O)[C@@H](NC(=O)OC)C(C)C)[nH]4)cc3)cc2)[nH]1)C(C)C (stereo partly specified) | 1.58 nM | 0.0158 nM | –
COC(=O)N[C@H](C(=O)N1CCC[C@H]1c1ncc(-c2ccc(-c3ccc(-c4cnc([C@@H]5CC6(CCC(F)(F)CC6)CN5C(=O)[C@@H](NC(=O)OC)C(C)C)[nH]4)cc3)cc2)[nH]1)C(C)C | 0.0398 nM | 0.00251 nM | EC50 [3]: 0.00158 nM; EC50 [4]: 1 nM; Ratio EC50 [5]: >=25; EC50 [6]: 0.2 nM; Ratio EC50 [7]: >=30
COC(=O)N[C@@H](C)C(=O)N1CC2(C[C@H]1c1ncc(-c3ccc(-c4ccc(-c5cnc([C@@H]6CCCN6C(=O)[C@@H](NC(=O)OC)C(C)C)[nH]5)cc4)cc3)[nH]1)OCCCO2 | 0.0794 nM | 0.02 nM | –
CC[C@H](NC(=O)OC)C(=O)N1CC2(C[C@H]1c1ncc(-c3ccc(-c4ccc(-c5cnc([C@@H]6CCCN6C(=O)[C@@H](NC(=O)OC)C(C)C)[nH]5)cc4)cc3)[nH]1)SCCS2 | 0.0631 nM | 0.00398 nM | –
O=C(Nc1nc(-c2ccccc2)cs1)[C@@H]1CCCN1C(=O)OCc1ccccc1 | > 20000 nM | 2510 nM | –
COC(=O)N[C@H](C(=O)N1CCC[C@H]1c1ncc(-c2ccc(-c3ccc(-c4cnc(C5CCC6(CCOCC6)N5C(=O)OCc5ccccc5)[nH]4)cc3)cc2)[nH]1)C(C)C (stereo partly specified) | 6.31 nM | 0.00631 nM | –
COC(=O)N[C@H](C(=O)N1CCC[C@H]1c1ncc(-c2ccc(-c3ccc(-c4cnc(C5CCC6(CCOCC6)N5C(=O)[C@@H](NC(=O)OC)C(C)C)[nH]4)cc3)cc2)[nH]1)C(C)C (stereo partly specified) | 1.58 nM | 0.0631 nM | –
O=C(NC1CC1)c1ccc(-c2csc(NC(=O)[C@@H]3CCCN3C(=O)OCc3ccccc3)n2)cc1 | > 20000 nM | 126 nM | –
COC(=O)N[C@@H](CC(C)C)C(=O)N1C(c2ncc(-c3ccc(-c4ccc(-c5cnc([C@@H]6CCCN6C(=O)[C@@H](NC(=O)OC)C(C)C)[nH]5)cc4)cc3)[nH]2)CCC12CCC(F)(F)CC2 (stereo partly specified) | 2 nM | 0.0126 nM | –
COC(=O)N[C@H](C(=O)N1CC2(CCOCC2)CC1c1ncc(-c2ccc(-c3ccc(-c4cnc([C@@H]5CCCN5C(=O)[C@@H](NC(=O)OC)C(C)C)[nH]4)cc3)cc2)[nH]1)C(C)C (mixture of isomers) | 0.0631 nM | 0.0158 nM | –
CN(C)[C@@H](C(=O)N1CCC[C@H]1c1ncc(-c2ccc(-c3ccc(-c4cnc([C@@H]5COC6(CCOCC6)N5C(=O)OCc5ccccc5)[nH]4)cc3)cc2)[nH]1)c1ccccc1 | 1.58 nM | 0.00631 nM | –
CC[C@H](NC(=O)OC)C(=O)N1C(c2ncc(-c3ccc(-c4ccc(-c5cnc([C@@H]6CCCN6C(=O)[C@@H](NC(=O)OC)C(C)C)[nH]5)cc4)cc3)[nH]2)CCC12CCC(F)(F)CC2 (stereo partly specified) | 1 nM | 0.0158 nM | –
COC(=O)N[C@H](C(=O)N1CC2(CCOCC2)C[C@H]1c1ncc(-c2ccc(-c3ccc(-c4cnc([C@@H]5CC6(CCOCC6)CN5C(=O)[C@@H](NC(=O)OC)C(C)C)[nH]4)cc3)cc2)[nH]1)C(C)C | 0.02 nM | 0.0126 nM | EC50 [3]: 0.00631 nM; EC50 [4]: 0.126 nM; Ratio EC50 [5]: <=5; EC50 [6]: 0.02 nM; Ratio EC50 [7]: >=30
COC(=O)N[C@H](C(=O)N1CCC[C@H]1c1ncc(-c2ccc(-c3ccc(-c4cnc([C@@H]5CC6(CN5C(=O)[C@@H](NC(=O)OC)C(C)C)SCCS6)[nH]4)cc3)cc2)[nH]1)C(C)C | 0.0794 nM | 0.00398 nM | –
